Measurements: ChEMBL document CHEMBL5360618, “PepScaf: Harnessing Machine Learning with In Vitro Selection toward De Novo Macrocyclic Peptides against IL-17C/IL-17RE Interaction” (J Med Chem, 2023)
Positions of bridges follow the written chain, without caps; N, C: chain ends. Residues, ends and D or L forms follow the SMILES beside them.

Target: T1, IL17-RE-IL-17C (Homo sapiens, UniProt Q8NFR9+Q9P0M4)
T1 sequence (Q9P0M4 whole entry): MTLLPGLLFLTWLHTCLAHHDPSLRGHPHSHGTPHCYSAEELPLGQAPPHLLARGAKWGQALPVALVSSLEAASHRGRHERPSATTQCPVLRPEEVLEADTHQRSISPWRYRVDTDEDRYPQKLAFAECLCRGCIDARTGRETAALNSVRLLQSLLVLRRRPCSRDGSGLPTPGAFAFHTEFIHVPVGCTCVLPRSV
T1 sequence (Q8NFR9 whole entry): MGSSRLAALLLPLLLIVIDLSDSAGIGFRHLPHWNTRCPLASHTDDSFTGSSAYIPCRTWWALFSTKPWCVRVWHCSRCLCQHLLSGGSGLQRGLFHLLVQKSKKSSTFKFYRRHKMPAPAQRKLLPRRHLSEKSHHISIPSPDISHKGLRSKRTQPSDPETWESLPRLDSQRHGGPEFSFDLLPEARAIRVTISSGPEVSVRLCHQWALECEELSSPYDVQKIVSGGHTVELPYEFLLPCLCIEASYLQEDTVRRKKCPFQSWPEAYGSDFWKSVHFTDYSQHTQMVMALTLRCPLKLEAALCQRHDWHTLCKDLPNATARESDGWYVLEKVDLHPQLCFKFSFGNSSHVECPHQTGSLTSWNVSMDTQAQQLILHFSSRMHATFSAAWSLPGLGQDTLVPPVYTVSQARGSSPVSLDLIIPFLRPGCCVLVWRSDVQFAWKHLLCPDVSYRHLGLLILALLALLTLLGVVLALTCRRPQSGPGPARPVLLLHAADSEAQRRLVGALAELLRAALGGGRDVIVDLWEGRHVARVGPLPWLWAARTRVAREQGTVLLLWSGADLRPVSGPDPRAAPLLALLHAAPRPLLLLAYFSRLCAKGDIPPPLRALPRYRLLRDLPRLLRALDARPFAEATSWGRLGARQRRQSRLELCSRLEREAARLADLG
Test: Inhibition of IL-17C/IL-17RE interaction (unknown origin) incubated for 1.5 hrs by ELISA method
Assay type: protein-complex assay

Structure (SMILES) | IC50 [nM]
CC[C@H](C)[C@@H]1NC(=O)[C@H](Cc2c[nH]cn2)NC(=O)[C@H](Cc2ccc(O)cc2)NC(=O)CSC[C@@H](C(=O)NCC(N)=O)NC(=O)CNC(=O)[C@H](CC(C)C)NC(=O)[C@H](CC(N)=O)NC(=O)CNC(=O)[C@H](Cc2ccc(O)cc2)NC(=O)[C@H](CC(C)C)NC(=O)[C@H](CO)NC(=O)[C@H](CCCNC(=N)N)NC(=O)[C@H](Cc2ccc(O)cc2)NC(=O)[C@H](Cc2ccc(O)cc2)NC1=O ({CH2CO}-YHIYYRSLYGNLGCG-NH2; thioether N-14) | 1.7
CC[C@H](C)[C@@H]1NC(=O)[C@H](Cc2c[nH]c3ccccc23)NC(=O)[C@H](C)NC(=O)[C@H](CC(=O)O)NC(=O)[C@H](Cc2ccccc2)NC(=O)[C@H](Cc2c[nH]cn2)NC(=O)[C@H](Cc2ccc(O)cc2)NC(=O)CSC[C@@H](C(=O)NCC(N)=O)NC(=O)[C@H](CCC(N)=O)NC(=O)[C@H](CC(C)C)NC(=O)[C@H](CC(C)C)NC(=O)[C@H]([C@@H](C)O)NC(=O)[C@H](C)NC1=O ({CH2CO}-YHFDAWIATLLQCG-NH2; thioether N-13) | > 30000
CC(C)C[C@@H]1NC(=O)[C@H](CO)NC(=O)CNC(=O)[C@H](Cc2ccc(O)cc2)NC(=O)[C@H](CC(C)C)NC(=O)[C@H](CO)NC(=O)[C@H](C(C)C)NC(=O)[C@H](Cc2ccc(O)cc2)NC(=O)[C@H](Cc2ccc(O)cc2)NC(=O)[C@H](CC(C)C)NC(=O)[C@H](Cc2c[nH]cn2)NC(=O)[C@H](Cc2ccc(O)cc2)NC(=O)CSC[C@@H](C(=O)NCC(N)=O)NC(=O)CNC1=O ({CH2CO}-YHLYYVSLYGSLGCG-NH2; thioether N-14) | 12
CC[C@H](C)[C@@H]1NC(=O)[C@H](CCCNC(=N)N)NC(=O)[C@H](Cc2ccc(O)cc2)NC(=O)[C@H](Cc2ccc(O)cc2)NC(=O)[C@H](CC(C)C)NC(=O)[C@H](Cc2c[nH]cn2)NC(=O)[C@H](Cc2ccc(O)cc2)NC(=O)CSC[C@@H](C(=O)NCC(N)=O)NC(=O)CNC(=O)[C@H](CC(C)C)NC(=O)[C@H](CC(N)=O)NC(=O)CNC(=O)[C@H](Cc2ccc(O)cc2)NC(=O)[C@H](CC(C)C)NC1=O ({CH2CO}-YHLYYRILYGNLGCG-NH2; thioether N-14) | 11.3
CC(C)C[C@@H]1NC(=O)[C@H](CO)NC(=O)CNC(=O)[C@H](Cc2ccc(O)cc2)NC(=O)[C@H](CC(C)C)NC(=O)[C@H](CO)NC(=O)[C@H](C(C)C)NC(=O)[C@H](Cc2ccc(O)cc2)NC(=O)[C@H](Cc2ccc(O)cc2)NC(=O)[C@H](CCC(N)=O)NC(=O)[C@H](Cc2c[nH]cn2)NC(=O)[C@H](Cc2ccc(O)cc2)NC(=O)CSC[C@@H](C(=O)NCC(N)=O)NC(=O)CNC1=O ({CH2CO}-YHQYYVSLYGSLGCG-NH2; thioether N-14) | 8.1
CC[C@H](C)[C@@H]1NC(=O)[C@H](Cc2c[nH]c3ccccc23)NC(=O)[C@H](C)NC(=O)[C@H](CC(=O)O)NC(=O)[C@H](Cc2ccccc2)NC(=O)[C@H](Cc2c[nH]cn2)NC(=O)[C@H](Cc2ccc(O)cc2)NC(=O)CSC[C@@H](C(=O)NCC(N)=O)NC(=O)[C@H](CC(C)C)NC(=O)[C@H](CO)NC(=O)[C@H](CCCNC(=N)N)NC(=O)[C@H](C)NC1=O ({CH2CO}-YHFDAWIARSLCG-NH2; thioether N-12) | > 30000
CC(C)C[C@@H]1NC(=O)[C@H](Cc2ccc(O)cc2)NC(=O)[C@H](CC(=O)O)NC(=O)[C@H](CCCCN)NC(=O)[C@H](CC(C)C)NC(=O)[C@H](Cc2c[nH]c3ccccc23)NC(=O)[C@H](C)NC(=O)[C@H](CC(=O)O)NC(=O)[C@H](Cc2ccccc2)NC(=O)[C@H](Cc2c[nH]cn2)NC(=O)[C@H](Cc2ccc(O)cc2)NC(=O)CSC[C@@H](C(=O)NCC(N)=O)NC(=O)CNC1=O ({CH2CO}-YHFDAWLKDYLGCG-NH2; thioether N-13) | > 30000
CC(C)C[C@@H]1NC(=O)[C@H](CC(N)=O)NC(=O)CNC(=O)[C@H](Cc2ccc(O)cc2)NC(=O)[C@H](CC(C)C)NC(=O)[C@H](CO)NC(=O)[C@H](Cc2ccc(O)cc2)NC(=O)[C@H](Cc2ccc(O)cc2)NC(=O)[C@H](Cc2ccc(O)cc2)NC(=O)[C@H](CC(C)C)NC(=O)[C@H](Cc2c[nH]cn2)NC(=O)[C@H](Cc2ccc(O)cc2)NC(=O)CSC[C@@H](C(=O)NCC(N)=O)NC(=O)CNC1=O ({CH2CO}-YHLYYYSLYGNLGCG-NH2; thioether N-14) | 5.5
